Results published in US20080287429A1 (Z & Z Medical Holdings, Inc., priority 2007, published 2008).
Like-named read-outs stand apart in the source and are kept apart here.

Tests used:
[1] = tested on: atherosclerotic plaque in pig artery; test: Solubilization of atherosclerotic plaque material in ex vivo samples of pig artery; conditions: 50 mg/mL DCA bath, after 5 hours
Procedure: Early in the treatment, on removal of the sample from the bath a clear, viscous, column of fluid extended from the sample. This column of fluid continued to be apparent when samples were evaluated up to about 4 or 5 hours, after which the fluid column was no longer noted. Without wishing to be held to any one theory of operation, it was concluded that the clear fluid comprised components of the plaque. […] The sample was continuously exposed for a period of 8 days.

[2] = fed to C57BL/6 LDL r-KO knockout mice, relative to mice not provided HDCA; cited from earlier work
[3] = wild type mice, same amount of dietary HDCA; cited from earlier work
[4] = tested on: sandwich culture rat hepatocyte; conditions: cited from earlier work
[5] = tested on: sandwich culture rat hepatocytes; conditions: cited from earlier work
[6] = tested on: sandwich culture human hepatocytes; conditions: cited from earlier work
[7] = tested on: hepatocellular uptake of bile acids; conditions: cited from earlier work
[8] = in vivo; cited from earlier work
[9] = 40 mg/day rosuvastatin, cited from earlier work
[10] = tested on: bile acid uptake by hepatocyte receptors; conditions: 1 mmol/kg, cited from earlier work

C[C@H](CCC(=O)O)[C@H]1CC[C@H]2[C@@H]3CC[C@@H]4C[C@H](O)CC[C@]4(C)[C@H]3C[C@H](O)[C@]12C [DCA, deoxycholic acid]
plaque volume decreased (macroscopic assessment) [1]: about 70%

C[C@H](CCC(=O)O)[C@H]1CC[C@H]2[C@@H]3C[C@H](O)[C@@H]4C[C@H](O)CC[C@]4(C)[C@H]3CC[C@]12C [HDCA, hyodeoxycholic acid]
rate of formation of atherosclerotic plaque [2]: reduced rate of formation
plasma levels [3]: up to 50 μM

COc1ccccc1Oc1c(NS(=O)(=O)c2ccc(C(C)(C)C)cc2)nc(-c2ncccn2)nc1OCCO [bosentan]
hepatic uptake and excretion of bile acids from the bile pole of the hepatocyte ([4]; 100 μM): inhibit

O=C1Nc2ccc(Cl)cc2[C@@](C#CC2CC2)(C(F)(F)F)O1 [efavirenz]
bile acid transport ([5]; 32 μM): inhibit
bile acid transport ([6]; 32 μM): inhibit

CC(=O)N1CCN(c2ccc(OCC3COC(Cn4ccnc4)(c4ccc(Cl)cc4Cl)O3)cc2)CC1 (stereo not drawn) [ketoconazole]
serum levels of cholic acid, taurocholic acid, and chenodeoxycholic acid ([7]; 25 mg/kg): increase
serum levels of cholic, taurocholic, chenodeoxycholic, glycocholic, glycochenodeoxycholic, glycodeoxycholic, deoxycholic and taurochenodeoxycholic acid ([7]; 50 mg/kg): increase
hepatocellular uptake of bile acids ([7]; dose related, relatively specific): strongly inhibiting
side effect [8]: hepatotoxicity

CC(C)c1nc(CN(C)C(=O)N[C@H](C(=O)N[C@@H](Cc2ccccc2)C[C@H](O)[C@H](Cc2ccccc2)NC(=O)OCc2cncs2)C(C)C)cs1 [ritonavir]
bile acid transport ([5]; 28 μM): inhibit
bile acid transport ([6]; 28 μM): inhibit

CC(C)c1nc(N(C)S(C)(=O)=O)nc(-c2ccc(F)cc2)c1/C=C/[C@@H](O)C[C@@H](O)CC(=O)O [rosuvastatin]
reduction with respect to normalized total atheroma volume ([9]; after 2 years, SD=11.1): 6.7%
plaque volume reduced, most diseased segments of vessels examined ([9]; after 2 years, SD=13.7): 8.5%
modulating LDL, HDL, and triglyceride levels [9]: particularly effective

ClC=C(Cl)Cl [trichloroethylene]
serum bile acids [10]: serum accumulation of bile acids
bile acid uptake by hepatocyte receptors ([10]; rather than actual cell damage): reversible physiological interference

Cc1c(C)c2c(c(C)c1O)CCC(C)(COc1ccc(CC3SC(=O)NC3=O)cc1)O2 (stereo not drawn) [troglitazone]
hepatic uptake and excretion of bile acids from the bile pole of the hepatocyte ([4]; 10 μM): inhibit
